Test results as given in PubChem BioAssay (NCI).
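Grown in 96-well plates, cells were treated for 48 hours with each compound at five concentrations. Insufficient inhibition: endpoint recorded as highest concentration tested. The concentration for 50% growth inhibition is given as GI50. At the TGI there is no net growth.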

What was measured:
Assay in all cases: NCI tumour cell line growth inhibition, 48 h
[1] = test system: 786-0 renal
[2] = test system: A498 renal
[3] = test system: A549 NSCLC
[4] = test system: ACHN renal
[5] = test system: BT-549 breast
[6] = test system: CAKI-1 renal
[7] = test system: CCRF-CEM leukemia
[8] = test system: COLO 205 colon
[9] = test system: DU-145 prostate
[10] = test system: EKVX NSCLC
[11] = test system: HCC-2998 colon
[12] = test system: HCT-116 colon
[13] = test system: HCT-15 colon
[14] = test system: HL-60(TB) leukemia
[15] = test system: HOP-62 NSCLC
[16] = test system: HOP-92 NSCLC
[17] = test system: HS 578T breast
[18] = test system: HT29 colon
[19] = test system: IGROV1 ovarian
[20] = test system: K-562 leukemia
[21] = test system: KM12 colon
[22] = test system: LOX IMVI melanoma
[23] = test system: M14 melanoma
[24] = test system: MALME-3M melanoma
[25] = test system: MCF7 breast
[26] = test system: MDA-MB-231 breast
[27] = test system: MDA-MB-435
[28] = test system: MOLT-4 leukemia
[29] = test system: NCI-H226 lung
[30] = test system: NCI-H23 lung
[31] = test system: NCI-H522 lung
[32] = test system: NCI/ADR-RES ovarian
[33] = test system: OVCAR-3 ovarian
[34] = test system: OVCAR-4 ovarian
[35] = test system: OVCAR-5 ovarian
[36] = test system: OVCAR-8 ovarian
[37] = test system: PC-3 prostate
[38] = test system: RPMI-8226 leukemia
[39] = test system: RXF 393 renal
[40] = test system: SF-268 CNS
[41] = test system: SF-295 CNS
[42] = test system: SF-539 CNS
[43] = test system: SK-MEL-2 melanoma
[44] = test system: SK-MEL-28 melanoma
[45] = test system: SK-MEL-5 melanoma
[46] = test system: SK-OV-3 ovarian
[47] = test system: SN12C renal
[48] = test system: SNB-19 CNS
[49] = test system: SNB-75 CNS
[50] = test system: SR leukemia
[51] = test system: SW-620 colon
[52] = test system: T-47D breast
[53] = test system: TK-10 renal
[54] = test system: UACC-257 melanoma
[55] = test system: UACC-62 melanoma
[56] = test system: UO-31 renal

O=c1[nH]cnc2c1ccn2C1OC(CO)C(O)C1O (configuration not stated)
GI50 [1]: 3.56 µM | TGI [1]: > 100 µM | GI50 [2]: 4.72 µM | TGI [2]: 70.5 µM | GI50 [3]: 7.53 µM | TGI [3]: > 100 µM | GI50 [4]: 2.51 µM | TGI [4]: > 100 µM | GI50 [5]: 5.86 µM | TGI [5]: > 100 µM | GI50 [6]: 2.57 µM | TGI [6]: > 100 µM | GI50 [7]: 4.74 µM | TGI [7]: 96 µM | GI50 [8]: 3.41 µM | TGI [8]: 26.5 µM | GI50 [9]: 2.34 µM | TGI [9]: 23.8 µM | GI50 [10]: 17.8 µM | TGI [10]: > 100 µM | GI50 [11]: 7.66 µM | TGI [11]: > 100 µM | GI50 [12]: 2.29 µM | TGI [12]: 28.8 µM | GI50 [13]: 4.1 µM | TGI [13]: > 100 µM | GI50 [14]: 3.88 µM | TGI [14]: 21.1 µM | GI50 [15]: 6.7 µM | TGI [15]: > 100 µM | GI50 [16]: 2 µM | TGI [16]: 15.5 µM | GI50 [17]: 14 µM | TGI [17]: > 100 µM | GI50 [18]: 5.73 µM | TGI [18]: > 100 µM | GI50 [19]: 4.32 µM | TGI [19]: 35.1 µM | GI50 [20]: 5.86 µM | TGI [20]: > 100 µM | GI50 [21]: 8.89 µM | TGI [21]: > 100 µM | GI50 [22]: 2.18 µM | TGI [22]: 16 µM | GI50 [23]: 4.36 µM | TGI [23]: > 100 µM | GI50 [24]: 6.42 µM | TGI [24]: 32.8 µM | GI50 [25]: 2.41 µM | TGI [25]: > 100 µM | GI50 [26]: 4.27 µM | TGI [26]: > 100 µM | GI50 [27]: 9.35 µM | TGI [27]: > 100 µM | GI50 [28]: 4.38 µM | TGI [28]: 20.3 µM | GI50 [29]: 16.1 µM | TGI [29]: > 100 µM | GI50 [30]: 6.01 µM | TGI [30]: 65.4 µM | GI50 [31]: 7.32 µM | TGI [31]: 34.7 µM | GI50 [32]: 3.2 µM | TGI [32]: > 100 µM | GI50 [33]: 5.68 µM | TGI [33]: > 100 µM | GI50 [34]: 1.48 µM | TGI [34]: 28.7 µM | GI50 [35]: 12 µM | TGI [35]: > 100 µM | GI50 [36]: 2.3 µM | TGI [36]: 90.4 µM | GI50 [37]: 3.35 µM | TGI [37]: > 100 µM | GI50 [38]: 3.15 µM | TGI [38]: 21.5 µM | GI50 [39]: 3.12 µM | TGI [39]: 22.9 µM | GI50 [40]: 11.7 µM | TGI [40]: > 100 µM | GI50 [41]: 8.6 µM | TGI [41]: > 100 µM | GI50 [42]: 10.7 µM | TGI [42]: > 100 µM | GI50 [43]: 3.04 µM | TGI [43]: 17.5 µM | GI50 [44]: 18.6 µM | TGI [44]: > 100 µM | GI50 [45]: 6.1 µM | TGI [45]: 19.2 µM | GI50 [46]: 3.72 µM | TGI [46]: > 100 µM | GI50 [47]: 3.6 µM | TGI [47]: > 100 µM | GI50 [48]: 14.8 µM | TGI [48]: > 100 µM | GI50 [49]: 3.8 µM | TGI [49]: > 100 µM | GI50 [50]: 5.38 µM | TGI [50]: 49.3 µM | GI50 [51]: 3.17 µM | TGI [51]: > 100 µM | GI50 [52]: 2.49 µM | TGI [52]: 80 µM | GI50 [53]: 3.64 µM | TGI [53]: 51.3 µM | GI50 [54]: 12.3 µM | TGI [54]: 78 µM | GI50 [55]: 10.1 µM | TGI [55]: 27.8 µM | GI50 [56]: 2.11 µM | TGI [56]: 8.85 µM
